pEC50, pIC50: −log10 of the molar value. Values after ≈ are worked out from the molar mass of the structure shown.
Key:
[1] = target: recombinant human PKM2 (Homo sapiens (Human), UniProt P14618); experiment: Human PKM2 activation assay (Kinase-Glo Plus luminescence); assay type: biochemical; conditions: for pEC50: activation of recombinant human PKM2, 4-parameter logistic fit, read-out: hPKM2 EC50
Method: Compound activation of recombinant human PKM2 pyruvate kinase activity was determined by biochemical assay. N-terminal His-tagged hPKM2 was sourced from R&D Systems and its substrates phosphoenolpyruvate (PEP) and ADP from Sigma-Aldrich and 2BScientific Ltd, respectively. The Kinase-Glo® Plus luminescence assay was from Promega. All other reagents were from Sigma-Aldrich. Test Compounds were prepared as 10 mM DMSO stocks and dilution series prepared in DMSO for direct dilution into Assay Buffer comprising 50 mM imidazole, 50 mM KCl, 7 mM MgCl2, 0.01% Tween20, 0.05% BSA (pH 7.2).
Human PKM2 was diluted into Assay Buffer comprising 50 mM imidazole, 50 mM KCl, 7 mM MgCl2, 0.01% Tween20, 0.05% BSA (pH 7.2) to a final concentration of 5 pM. Enzyme-Assay Buffer mix was dispensed into a 384-well shallow-well white-walled plate (PerkinElmer) and Test Compounds added by acoustic dispense (Echo®, Labcyte Inc.).
After 60 minutes' incubation on an orbital shaker (300 rpm, 26° C.), enzyme activity was quantified by the luminescent detection of generated ATP. Kinase-Glo® Plus reagent was added to each well and the plates incubated for a further 15 minutes on an orbital shaker in the dark (300 rpm, 26° C.) before luminescence measurement on a plate reader (PHERAstar® FSX, BMG Labtech).
EC50 and Emax values were determined from 4-parameter logistic fits of compound concentration-response curves.

[2] = system: A549 cells; experiment: A549 proliferation assay in low-serine medium (CellTiter-Glo); assay type: cell-based; conditions: Homo sapiens, 72 h, 3 days, low-serine medium (20 μM L-serine)
Method: The effect of compounds of Formula (I) on A549 cell proliferation in low-serine medium was assessed using a luminescence assay of viable cell number (CellTiter-Glo® 2.0, Promega) duplexed with a fluorescent cytotoxicity assessment (CellTox™ Green, Promega). Cell culture reagents were from ThermoFisher unless specified otherwise. Assay reagents were from Sigma-Aldrich unless specified otherwise. Test Compounds were prepared as 10 mM DMSO stocks and dilution series prepared in DMSO for direct dilution into culture medium.
Cells were passaged every 3-4 days at 80-90% confluence. The cell monolayer was washed twice with room-temperature Ca^2+/Mg-free PBS and 4 ml room-temperature trypsin-EDTA added to the flask. After 5 minutes' incubation (37° C., 5% CO2) to detach cells, trypsin was quenched with 13 ml warmed complete growth medium and the cells harvested and diluted to 2.4×10^4 cells/ml for dispensing into 384-well clear-bottom black-walled plates (600 cells/well).
Following overnight incubation, growth medium was aspirated from each well and the cells washed twice with Assay Medium comprising Basal Medium Eagle supplemented with 3% heat-inactivated dialysed FBS plus 2 mM L-glutamine plus 20 μM L-serine (Sigma-Aldrich). After aspiration of the final wash medium, Assay Medium containing Test Compound was added to each well. DMSO vehicle controls were included on each plate.
Cells were incubated for 3 days in a humidified incubator (37° C., 5% CO2) at which point CellTox™ Green and CellTiter-Glo® reagents were prepared according to the manufacturer's instructions. Triton-X was added to HIGH wells for cytotoxicity determination and the plate incubated for 30 minutes (20° C., ambient humidity and pCO2). CellTox™ Green reagent was added to each well and the plate covered, placed on an orbital shaker @450 rpm for 2 minutes, and incubated in the dark for 15 minutes (20° C., ambient humidity and pCO2). Endpoint fluorescence was measured using a plate reader (PHERAstar® FSX, BMG Labtech).
Following cytotoxicity determination, CellTiter-Glo® reagent was added to each well and the plate placed on an orbital shaker @450 rpm for 2 minutes to lyse cells. Plates were incubated in the dark for 15-30 minutes (20° C., ambient humidity and pCO2) prior to endpoint luminescence measurement (PHERAstar® FSX, BMG Labtech).
Proliferation was calculated by normalizing luminescence signals to LOW controls obtained from a parallel plate processed at the time of Test Compound challenge and HIGH (DMSO vehicle) wells from the compound plate. IC50 values were determined from a 4-parameter logistic fit of compound concentration-response curves.

[3] = Kinetic aqueous solubility; conditions: phosphate buffered saline (PBS) pH 7.4, pH 7.4, aqueous buffer, kinetic from dmso stock, Kinetic solubility (Ksol), (μg/ml), PBS pH 7.4, 200 μM (2% DMSO), RT
Method: (§1) Phosphate buffered saline (PBS) pH 7.4 was prepared using PBS tablets as per the manufacturer's instructions. Compounds and marker stocks are prepared at 10 mM in DMSO.
(§2) Compounds were incubated at 200 μM (2% DMSO) in Millipore—MSS LB PC 10 or Porvair—ref: 36004 plates in the presence of the prepared PBS pH 7.4 solution for 1.5 h, at RT, with gentle shaking. […] The samples were then analysed in a 96 well UV Star analysis plate on a plate reader from 220 nm to 500 nm at 10 nm increments.
(§3) The concentration of the samples was calculated against the standard curves.

[4] = target: recombinant human PKLR (Homo sapiens (Human), UniProt P30613); experiment: Human PKLR activation assay (Kinase-Glo Plus luminescence)
Chain of recombinant human PKLR (P30613 whole entry): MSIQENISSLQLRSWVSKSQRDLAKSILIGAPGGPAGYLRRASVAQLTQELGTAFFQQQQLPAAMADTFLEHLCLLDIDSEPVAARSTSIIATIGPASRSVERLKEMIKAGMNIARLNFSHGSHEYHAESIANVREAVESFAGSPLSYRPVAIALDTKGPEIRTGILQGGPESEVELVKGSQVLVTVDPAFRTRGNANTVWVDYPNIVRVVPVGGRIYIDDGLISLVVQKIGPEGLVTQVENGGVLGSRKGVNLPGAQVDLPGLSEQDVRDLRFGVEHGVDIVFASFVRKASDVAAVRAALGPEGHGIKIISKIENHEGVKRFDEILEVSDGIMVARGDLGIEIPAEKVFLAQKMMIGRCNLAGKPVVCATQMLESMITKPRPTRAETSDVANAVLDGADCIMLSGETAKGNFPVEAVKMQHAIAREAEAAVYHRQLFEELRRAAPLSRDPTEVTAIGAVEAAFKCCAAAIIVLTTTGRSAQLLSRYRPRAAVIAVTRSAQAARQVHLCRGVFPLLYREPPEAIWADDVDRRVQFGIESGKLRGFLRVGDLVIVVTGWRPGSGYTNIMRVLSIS
Method: Compound activation of recombinant human PKLR pyruvate kinase activity was determined by biochemical assay. N-terminal His-tagged enzyme was sourced from R&D Systems and its substrates phosphoenolpyruvate (PEP) and ADP from Sigma-Aldrich and 2BScientific Ltd, respectively. The Kinase-Glo® Plus luminescence assay was from Promega. All other reagents were from Sigma-Aldrich. Test Compounds were prepared as 10 mM DMSO stocks and dilution series prepared in DMSO for direct dilution into Assay Buffer comprising 50 mM imidazole, 50 mM KCl, 7 mM MgCl2, 0.01% Tween20, 0.05% BSA (pH 7.2).
Human PKLR was diluted into Assay Buffer to a final concentration of 5 pM. Enzyme-Assay Buffer mix was dispensed into 384-well shallow-well white-walled plates and Test Compounds added by acoustic dispense (Echo®, Labcyte Inc).

[5] = pH 7.4
Method: as §1, §2, §3

Chain of recombinant human PKM2 (P14618 whole entry): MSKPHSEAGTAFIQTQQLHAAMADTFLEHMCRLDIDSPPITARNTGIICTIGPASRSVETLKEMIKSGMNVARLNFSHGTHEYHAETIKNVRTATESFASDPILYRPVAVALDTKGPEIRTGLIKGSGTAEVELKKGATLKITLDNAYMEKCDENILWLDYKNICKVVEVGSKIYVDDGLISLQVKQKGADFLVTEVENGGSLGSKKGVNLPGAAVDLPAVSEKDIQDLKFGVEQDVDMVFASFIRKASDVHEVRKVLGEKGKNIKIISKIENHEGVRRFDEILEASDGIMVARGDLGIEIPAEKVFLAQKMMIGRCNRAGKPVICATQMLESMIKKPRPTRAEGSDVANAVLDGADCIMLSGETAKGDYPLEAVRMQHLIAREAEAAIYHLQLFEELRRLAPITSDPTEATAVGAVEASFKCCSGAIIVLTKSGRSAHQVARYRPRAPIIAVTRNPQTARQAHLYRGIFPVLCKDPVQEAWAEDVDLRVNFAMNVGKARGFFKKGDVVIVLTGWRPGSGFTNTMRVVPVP

Row | pEC50 [1] | Emax ([1]; read-out: hPKM2 Emax (%)) | pIC50 [2] | solubility kinetic at 1.5 h [3] | pEC50 [4] | Emax ([4]; read-out: hPKLR Emax (%)) | hPKM2 Emax (%) ([1]; percentage activation normalised to DMSO vehicle (LOW) and 5 μM TEPP-46 (HIGH)) | Kinetic solubility (Ksol); [5] | Compound
1 | 5.83 | 79.7% | 7.87 | 61.6 µg/mL (≈ 145 µM) | 6.49 to 7.22 | 100 to 117% |  |  | Cn1c2c(c3cnn(Cc4cc[nH]n4)c(=O)c31)CCN(S(=O)(=O)c1ccccc1)C2 [Example 12, 3-((1H-pyrazol-3-yl)methyl)-5-methyl-7-(phenylsulfonyl)-3,5,6,7,8,9-hexahydro-4H-pyrido[4′,3′:4,5]pyrrolo[2,3-d]pyridazin-4-one]
2 | 7.08 |  |  |  |  |  | 62.2% | 30.29 µg/mL | (3-((1H-pyrrolo[2,3-c]pyridin-3-yl)methyl)-N-ethyl-5-methyl-4-oxo-5,6,8,9-tetrahydro-3H-pyrido[4′,3′:4,5]pyrrolo[2,3-d]pyridazine-7(4H)-sulfonamide [Example 30]

Source: patent publication US20240409542A1, “NOVEL COMPOUNDS” (Sitryx Therapeutics Limited, priority 2021, published 2024)
